How the values were obtained:
Format in all cases: functional, Homo sapiens
Parameters in all cases: concentration or dose not given beside the values
[1] = Compounds was tested for the effect of L-nucleosides of ribavirin on SEB (staphylococcal enterotoxin B)-stimulated T-cell expression of the type 1 cytokine IFN-gamma
[2] = Compounds was tested for the effect of L-nucleosides of ribavirin on SEB (staphylococcal enterotoxin B)-stimulated T-cell expression of the type 1 cytokine TNF-alpha
[3] = Compounds was tested for the effect of L-nucleosides of ribavirin on SEB (staphylococcal enterotoxin B)-stimulated T-cell expression of the type 1 cytokine IL-2.

## NC(=O)c1ncn([C@@H]2C[C@@H](O)[C@H](CO)O2)n1
[1]
  Control: 110%
[2]
  Control: 119%
[3]
  Control: 108%

## NC(=O)c1ncn([C@H]2O[C@@H](CO)[C@H](O)[C@@H]2O)n1
[1]
  Control: 122%
[2]
  Control: 144%
[3]
  Control: 131%

## Cl.N=C(N)c1ncn([C@H]2O[C@@H](CO)[C@H](O)[C@@H]2O)n1
[1]
  Control: 128%
[2]
  Control: 120%
[3]
  Control: 133%

## NC(=O)c1ncn([C@H]2O[C@@H](CO)C[C@@H]2O)n1
[1]
  Control: 114%
[2]
  Control: 109%
[3]
  Control: 115%

## NC(=O)c1ncn([C@H]2O[C@@H](CO)[C@@H](O)[C@@H]2O)n1
[1]
  Control: 119%
[2]
  Control: 132%
[3]
  Control: 100%

## NC(=O)c1ncn([C@@H]2O[C@H](CO)[C@@H](O)[C@H]2O)n1 [RIBAVIRIN]
[1]
  Control: 131%
[2]
  Control: 124%
[3]
  Control: 143%
